Test results as given in US7786143B2, “Thiazolyl piperidine derivatives” (Hoffman-La Roche Inc., priority 2005, dated 2010).

Biological target: T1, histamine 3 receptor (H3R) (Homo sapiens, UniProt Q9Y5N1)
T1 construct: expressed in transfected cells; host or cells: CHO cells (HR3-CHO)
Experiment: Binding assay with 3H-(R)α-methylhistamine, competition binding on membranes of the human HR3-CHO cell line
Details: competition with 3H(R)α-methylhistamine (1 nM), Ki calculated from IC50 by Cheng-Prusoff
Experimental: Binding Assay with ^3H-(R)α-methylhistamine
Saturation binding experiments were performed using HR3-CHO membranes prepared as described in Takahashi, K, Tokita, S., Kotani, H. (2003) J. Pharmacol. Exp. Therapeutics 307, 213-218.
An appropriate amount of membrane (60 to 80 μg protein/well) was incubated with increasing concentrations of ^3H(R)α-Methylhistamine di-hydrochloride (0.10 to 10 nM). Non specific binding was determined using a 200 fold excess of cold (R)α-Methylhistamine dihydrobromide (500 nM final concentration). The incubation was carried out at room temperature (in deep-well plates shaking for three hours). The final volume in each well was 250 μl. The incubation was followed by rapid filtration on GF/B filters (pre-soaked with 100 μl of 0.5% PEI in Tris 50 mM shaking at 200 rpm for two hours). The filtration was made using a cell-harvester and the filter plates were then washed five times with ice cold washing buffer containing 0.5 M NaCl. After harvesting, the plates were dried at 55° C. for 60 min, then we added scintillation fluid (Microscint 40, 40 microl in each well) and the amount of radioactivity on the filter was determined in Packard top-counter after shaking the plates for two hours at 200 rpm at room temperature.
Binding Buffer: 50 mM Tris-HCl pH 7.4 and 5 mM MgCl2×6H2O pH 7.4. Washing Buffer: 50 mM Tris-HCl pH 7.4 and 5 mM MgCl2×6H2O and 0.5 M NaCl pH 7.4.
Indirect measurement of affinity of H3R inverse agonists: twelve increasing concentrations (ranging from 10 μM to 0.3 nM) of the selected compounds were always tested in competition binding experiments using membrane of the human HR3-CHO cell line. […]
All compounds were tested at a single concentration in duplicates. […] Ki's were calculated from IC50 based on Cheng-Prusoff equation (Cheng, Y, Prusoff, W H (1973) Biochem Pharmacol 22, 3099-3108).

T1 sequence (Q9Y5N1 whole entry): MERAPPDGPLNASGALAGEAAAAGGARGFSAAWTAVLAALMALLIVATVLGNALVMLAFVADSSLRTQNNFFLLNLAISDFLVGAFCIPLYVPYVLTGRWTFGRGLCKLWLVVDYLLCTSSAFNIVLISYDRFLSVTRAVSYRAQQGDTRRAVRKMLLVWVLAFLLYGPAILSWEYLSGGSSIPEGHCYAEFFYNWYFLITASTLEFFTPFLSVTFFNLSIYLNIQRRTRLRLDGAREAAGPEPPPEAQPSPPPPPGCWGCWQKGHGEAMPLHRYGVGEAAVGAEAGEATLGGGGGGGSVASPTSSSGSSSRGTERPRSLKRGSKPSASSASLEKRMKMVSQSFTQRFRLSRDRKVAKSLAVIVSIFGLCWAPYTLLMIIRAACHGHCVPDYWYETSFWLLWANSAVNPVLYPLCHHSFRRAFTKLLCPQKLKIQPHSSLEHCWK

Row | Ki [nM] | SMILES
1 | 123 | c1cc2c(cc1-c1csc(C3CCN(C4CCCC4)CC3)n1)OCCO2 [Example 52, 1-cyclopentyl-4-[4-(2,3-dihydro-benzo[1,4]dioxin-6-yl)-thiazol-2-yl]-piperidine]
2 | 28 | COc1ccc(-c2csc(C3CCN(C(C)C)CC3)n2)cc1 [Example 9, 1-isopropyl-4-[4-(4-methoxy-phenyl)-thiazol-2-yl]-piperidine]
3 | 156 | CC1CCCCN1C(=O)c1csc(C2CCN(C3CCCC3)CC2)n1 (stereo not drawn) [Example 68, [2-(1-cyclopentyl-piperidin-4-yl)-thiazol-4-yl]-(2-methyl-piperidin-1-yl)-methanone]
